Source: PMC12736473, “Development and Validation of LC-MS/MS Method for Nintedanib and BIBF 1202 Monitoring in Plasma of Patients with Progressive Pulmonary Fibrosis Associated with Systemic Sclerosis” (Pharmaceutics, 2025)
Read-outs that look alike come from different tables or passages of the source.

Tests used:
[1] = Autosampler stability at 10 ± 2 °C; type: physicochemical, human; settings: after 45 h
Procedure: (§1) The stability of NIN and BIBF 1202 in human plasma, including in the short term, autosampler, and freeze–thaw, was evaluated for the QC samples analyzed at two concentrations, 5.00 ng/mL (LQC1) and 170.00 ng/mL (HQC), studied in six replicates per test. The short-term stability of NIN and BIBF 1202 was assessed for the samples that were stored at ambient temperature (≤30 °C) for at least two hours, which were analyzed and compared with freshly prepared samples. Autosampler stability was determined by storing samples in the autosampler at 10 ± 2 °C for at least […]. Freeze–thaw stability was examined over three cycles, in which samples were frozen at ≤−14 °C for 12 h and subsequently thawed at ambient temperature (≤30 °C).
(§2) Autosampler stability was examined by storing samples at 10 ± 2 °C for up to 48 h. No impact of three freeze–thaw cycles (freezing at ≤−14 °C and thawing at ambient temperature) was observed on the stability of NIN or BIBF 1202.

[2] = Short-term stability in human plasma at ambient temperature (≤30 °C); type: in vitro ADME; settings: for Short-term stability, Stability [%]: human plasma, ≤30 °C, vs reference samples
Procedure: as §1, §2

[3] = Freeze–thaw stability in human plasma, three cycles; type: in vitro ADME; settings: for Freeze–thaw stability, Stability [%]: human plasma, 3 cycles (≤−14 °C / ambient); for Impact of freeze–thaw cycles on stability: three cycles, freezing at ≤−14 °C, thawing at ambient temperature
Procedure: as §1, §2

[4] = NIN and BIBF 1202 plasma concentrations (C0, Cmax) in patients treated with NIN, UPLC-MS/MS; type: in vivo, human; settings: for Cmax: human, read-out: Mean Concentration Cmax; for Cmax / Mean Concentration C0: patient plasma; for Concentration in the patient sample (chromatogram): single patient sample after administration of 100 mg dose
Procedure: Whole blood was collected via standard venipuncture from 24 patients diagnosed with CTD-PPF. Patients received treatment with NIN, of whom 8 were administered a dose of 100 mg twice daily and 16 received 150 mg twice daily. Blood samples were obtained prior to the first daily NIN dose (trough concentration, C0) and 2–3 h afterward (maximum concentration, Cmax). Following collection, samples of whole blood with NIN and metabolite were centrifuged, and then plasma was stored at −70 °C. This study was approved by the Local Bioethics Committee of the National Institute of Geriatrics, Rheumatology, and Rehabilitation in Warsaw (KBT-5/3/2024).
To prepare the samples, 200 μL of plasma was spiked with 20 μL of IS (NIN-d3) and vortexed. Protein precipitation was carried out using 500 μL of chilled ACN solution after we previously neutralized the samples with 50 μL of 2 M sodium carbonate (Na2CO3). The samples were subsequently mixed on an orbital shaker (Vibrax, IKA, Staufen, Germany) for 30 s at 1800 and centrifuged for 10 min at 13,000 rpm, 3 °C. Then, 200 μL of the supernatant was transferred into autosampler vials for LC-MS/MS analysis under the conditions described in Section 2.6 and Section 2.7.
The UPLC Acquity I-class Plus system (Milford, MA, USA, Waters), equipped with a quaternary gradient pump, column oven, degasser unit, and autosampler, was used. The autosampler and column were maintained at 10 ± 2 °C and 40 ± 2 °C, respectively. The isocratic elution was carried out using a mobile phase consisting of 0.1% formic acid in water and acetonitrile (35:65, v/v). The mobile phase flowed through a Zorbax SB-C18 column (100 mm × 3.0 mm, 3.5 µm; Santa Clara, CA, USA, Agilent Technologies) at a flow rate of 0.3 mL/min. The system was equipped with an ASSY FRIT pre-column (0.2 µm, 2.1 mm; Milford, MA, USA, Waters). To prevent the carry-over effect, after the analysis, the injection needle was washed with a mixture consisting of acetonitrile, methanol, isopropyl alcohol, water, and formic acid (250:250:250:250:1, v/v/v/v/v).
Mass spectrometric analysis was performed using a XEVO-TQ-XS quadrupole mass spectrometer (Milford, MA, USA, Waters). Multiple Reaction Monitoring (MRM) chromatograms were acquired and processed with MassLynx 4.2 software (Milford, MA, USA, Waters). Ionization was carried out in positive ion mode using electrospray ionization (ESI+). MS parameters of instruments and analyzed compounds are detailed in Table 1.
The LC-MS/MS method developed and fully validated in this study was used to analyze the concentrations (C0 and Cmax) of nintedanib and its metabolite BIBF 1202 in human plasma. Twenty-four patients were treated with two doses of NIN (8 patients: 100 or 16 patients: 150 mg twice daily). In total, 48 samples were collected from patients at two time points: a morning dose at the trough level, and a dose 2–3 h (Cmax) after the morning dose administration. The concentrations of NIN and its metabolite were determined in the plasma of 24 patients (Male/Female 8:16, mean age 56.2, age range 35–75) with progressive pulmonary fibrosis associated with systemic sclerosis. The obtained results are presented in Table 7 and illustrated graphically (Figure 4).

[5] = parameters: method as in PK study presented in the literature; settings: ref PK study presented in the literature; cited from earlier work
[6] = parameters: method as in PMID 26072676; settings: cited from earlier work
[7] = 2 h at ambient temperature (≤30 °C)
[8] = NIN 100 mg twice daily, n = 8, 2–3 h after morning dose
[9] = NIN 150 mg twice daily, n = 16, 2–3 h after morning dose
[10] = NIN 100 mg twice daily, n = 8, trough (before first daily dose)
[11] = NIN 150 mg twice daily, n = 16, trough (before first daily dose)

Structure (SMILES)	Autosampler stability, Stability [%] ([1]; HQC (170.00 ng/mL))	Autosampler stability, Stability [%] ([1]; LQC1 (5.00 ng/mL))	Short-term stability, Stability [%] ([2]; 2 h, HQC (170.00 ng/mL))	Short-term stability, Stability [%] ([2]; 2 h, LQC1 (5.00 ng/mL))	Effect of storing plasma samples on concentration [2, 7]	Effect of storing plasma samples on concentration ([2]; 4 h at ≤30 °C)	Freeze–thaw stability, Stability [%] ([3]; HQC (170.00 ng/mL))	Freeze–thaw stability, Stability [%] ([3]; LQC1 (5.00 ng/mL))	Impact of freeze–thaw cycles on stability [3]	Cmax [4, 8] [ng/mL]	Cmax [4, 9] [ng/mL]	Mean Concentration C0 [4, 10] [ng/mL]	Mean Concentration C0 [4, 11] [ng/mL]	Concentration in the patient sample (chromatogram) [4] [ng/mL]	Short-term stability, Stability [%] ([2]; 4 h, HQC (170.00 ng/mL))	Short-term stability, Stability [%] ([2]; 4 h, LQC1 (5.00 ng/mL))	Time of peak plasma concentrations after administration [5] [h]	Rate of diarrhea ([6]; patients who continued NIN) [%]	Rate of diarrhea ([6]; patients who initiated NIN) [%]
CN1CCN(CC(=O)N(C)c2ccc(N/C(=C3\C(=O)Nc4cc(C(=O)O)ccc43)c3ccccc3)cc2)CC1 [BIBF 1202]	98.9	98.5	102.3	100.8	did not cause changes	reduction in the BIBF signal	105.9	94.7	No impact	26.6	57.8	9.81	35.20	28.0					
COC(=O)c1ccc2c(c1)NC(=O)/C2=C(\Nc1ccc(N(C)C(=O)CN2CCN(C)CC2)cc1)c1ccccc1 [NIN, Nintedanib]	100.6	96.4			did not cause changes	no effect	99.7	94.6	No impact	16.5	28.7	7.33	18.60	12.3	101.3	100.7	2 to 3	60.1	71
